Where a SMILES comes first, the peptide text is derived from it. Bridges are numbered along the chain shown (N, C = ends). [ ]: non-standard residue; d: D form. The star is where a group is joined. Val(Nα-amidino) = CC(C)[C@H](NC(=N)N)C(=O)*; Hyp = O=C(O)[C@@H]1C[C@@H](O)CN1; Pen = CC(C)(S)[C@H](N)C(=O)O; dDab = NCC[C@@H](N)C(=O)O; Dab = NCC[C@H](N)C(=O)O
How the values were obtained:
Format in all cases: cell-based
[1] = system: human red blood cells (hRBC); details: red cells of human, 1 h, 200 μg/mL
Summary of the method: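 Percent hemolysis derived from OD540 of supernatants relative to full lysis by 2.5% Triton X-100 (PBS baseline). Washed fresh human erythrocytes (20% v/v) were exposed to 200 μg/mL peptide for 1 h at 37 °C with shaking.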

[2] = system: Escherichia coli MCR-1 Af 45; details: MCR-1 Af 45
Summary of the method: (§1)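 CLSI broth microdilution, slightly modified: cation-adjusted Mueller-Hinton II broth with about 5×10^5 CFU/mL from a 0.5 McFarland suspension, and two-fold serial peptide dilutions with Polysorbate 80 at 0.002% final. MIC (μg/mL) was the lowest concentration with no visible growth after 18-20 hours at 35° C.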

[3] = system: Escherichia coli ATCC 25922; details: ATCC 25922
Summary of the method: as §1

[4] = system: Klebsiella pneumoniae SSI3010; details: SSI3010
Summary of the method: as §1

SMILES | Hemolysis at 0.2 g/L [1] | Escherichia coli MCR-1 Af45 MIC [2] | Escherichia coli ATCC 25922 MIC [3] | Klebsiella pneumoniae SSI3010 MIC [4]
CC[C@H](C)[C@H](NC(=O)[C@@H]1C[C@@H](O)CN1C(=O)[C@@H](NC(=N)N)C(C)C)C(=O)N[C@@H]1C(=O)N[C@@H](Cc2ccc(O)cc2)C(=O)N[C@@H]([C@@H](C)O)C(=O)N[C@@H](CC(N)=O)C(=O)N[C@@H](CCCNC(=N)N)C(=O)N[C@@H](CCN)C(=O)N[C@@H]([C@@H](C)O)C(=O)N[C@H](CCN)C(=O)N[C@@H](CO)C(=O)N[C@@H](CCN)C(=O)N[C@@H](CCN)C(=O)N[C@H](C(=O)N[C@@H](Cc2ccc(O)cc2)C(=O)O)CSSC1(C)C [Example 81, Gua-Val-Hyp-Ile-Pen-Tyr-Thr-Asn-Arg-Dab-Thr-^DDab-Ser-Dab-Dab-Cys-Tyr] ({Val(Nα-amidino)}-[Hyp]I[Pen]YTNR[Dab]T[dDab]S[Dab][Dab]CY-OH; disulfide 3-14) | <1% | 0.125 µg/mL | 0.125 µg/mL | 0.25 µg/mL
CC[C@H](C)[C@H](NC(=O)[C@@H]1C[C@@H](O)CN1C(=O)[C@@H](NC(=N)N)C(C)C)C(=O)N[C@@H]1C(=O)N[C@@H](Cc2ccc(O)cc2)C(=O)N[C@@H]([C@@H](C)O)C(=O)N[C@@H](CC(N)=O)C(=O)N[C@@H](CCCNC(=N)N)C(=O)N[C@@H](CCN)C(=O)N[C@@H](CO)C(=O)N[C@H](CCN)C(=O)N[C@@H](CO)C(=O)N[C@@H](CCN)C(=O)N[C@@H](CCN)C(=O)N[C@H](C(=O)N[C@@H](Cc2ccc(O)cc2)C(=O)O)CSSC1(C)C [Example 82, Gua-Val-Hyp-Ile-Pen-Tyr-Thr-Asn-Arg-Dab-Ser-^DDab-Ser-Dab-Dab-Cys-Tyr] ({Val(Nα-amidino)}-[Hyp]I[Pen]YTNR[Dab]S[dDab]S[Dab][Dab]CY-OH; disulfide 3-14) | <1% | 0.125 µg/mL | 0.125 µg/mL | 0.25 µg/mL
CC[C@H](C)[C@H](NC(=O)[C@@H]1C[C@@H](O)CN1C(=O)[C@@H](NC(=N)N)C(C)C)C(=O)N[C@H]1CCNC(=O)CC[C@@H](C(=O)N[C@@H](Cc2ccc(O)cc2)C(=O)O)NC(=O)[C@H](CCN)NC(=O)[C@H](CCN)NC(=O)[C@H](CCCCN)NC(=O)[C@@H](CCN)NC(=O)[C@H]([C@@H](C)O)NC(=O)[C@H](CCN)NC(=O)[C@H](CCCNC(=N)N)NC(=O)[C@H](CC(N)=O)NC(=O)[C@H](CO)NC(=O)[C@H](Cc2ccc(O)cc2)NC1=O [Example 83, Gua-Val-Hyp-Ile-Dab-Tyr-Ser-Asn-Arg-Dab-Thr-^DDab-Lys-Dab-Dab-Glu-Tyr] ({Val(Nα-amidino)}-[Hyp]I[Dab]YSNR[Dab]T[dDab]K[Dab][Dab]EY-OH; lactam 3-14) | <1% | 0.03125 µg/mL | 0.03125 µg/mL | 0.125 µg/mL
CC[C@H](C)[C@H](NC(=O)[C@@H]1C[C@@H](O)CN1C(=O)[C@@H](NC(=N)N)C(C)C)C(=O)N[C@H]1CCNC(=O)CC[C@@H](C(=O)N[C@@H](Cc2ccc(O)cc2)C(=O)O)NC(=O)[C@H](CCN)NC(=O)[C@H](CCN)NC(=O)[C@H](CCCCN)NC(=O)[C@@H](CCN)NC(=O)[C@H](CO)NC(=O)[C@H](CCN)NC(=O)[C@H](CCCNC(=N)N)NC(=O)[C@H](CC(N)=O)NC(=O)[C@H](CO)NC(=O)[C@H](Cc2ccc(O)cc2)NC1=O [Example 84, Gua-Val-Hyp-Ile-Dab-Tyr-Ser-Asn-Arg-Dab-Ser-^DDab-Lys-Dab-Dab-Glu-Tyr] ({Val(Nα-amidino)}-[Hyp]I[Dab]YSNR[Dab]S[dDab]K[Dab][Dab]EY-OH; lactam 3-14) | <1% | 0.03125 µg/mL | 0.0625 µg/mL | 0.125 µg/mL
CC[C@H](C)[C@H](NC(=O)[C@@H]1C[C@@H](O)CN1C(=O)[C@@H](NC(=N)N)C(C)C)C(=O)N[C@H]1CCNC(=O)CC[C@@H](C(=O)N[C@@H](Cc2ccc(O)cc2)C(=O)O)NC(=O)[C@H](CCN)NC(=O)[C@H](CCN)NC(=O)[C@H](CCCCN)NC(=O)[C@@H](CCN)NC(=O)[C@H]([C@@H](C)O)NC(=O)[C@H](CCN)NC(=O)[C@H](CCCNC(=N)N)NC(=O)[C@H](CC(N)=O)NC(=O)[C@H]([C@@H](C)O)NC(=O)[C@H](Cc2ccc(O)cc2)NC1=O [Example 85, Gua-Val-Hyp-Ile-Dab-Tyr-Thr-Asn-Arg-Dab-Thr-^DDab-Lys-Dab-Dab-Glu-Tyr] ({Val(Nα-amidino)}-[Hyp]I[Dab]YTNR[Dab]T[dDab]K[Dab][Dab]EY-OH; lactam 3-14) | 1% | 0.0625 µg/mL | 0.0625 µg/mL | 0.125 µg/mL
CC[C@H](C)[C@H](NC(=O)[C@@H]1C[C@@H](O)CN1C(=O)[C@@H](NC(=N)N)C(C)C)C(=O)N[C@H]1CCNC(=O)CC[C@@H](C(=O)N[C@@H](Cc2ccc(O)cc2)C(=O)O)NC(=O)[C@H](CCN)NC(=O)[C@H](CCN)NC(=O)[C@H](CCCCN)NC(=O)[C@@H](CCN)NC(=O)[C@H](CO)NC(=O)[C@H](CCN)NC(=O)[C@H](CCCNC(=N)N)NC(=O)[C@H](CC(N)=O)NC(=O)[C@H]([C@@H](C)O)NC(=O)[C@H](Cc2ccc(O)cc2)NC1=O [Example 86, Gua-Val-Hyp-Ile-Dab-Tyr-Thr-Asn-Arg-Dab-Ser-^DDab-Lys-Dab-Dab-Glu-Tyr] ({Val(Nα-amidino)}-[Hyp]I[Dab]YTNR[Dab]S[dDab]K[Dab][Dab]EY-OH; lactam 3-14) | <1% | 0.03125 µg/mL | 0.03125 µg/mL | 0.0625 µg/mL
CC[C@H](C)[C@H](NC(=O)[C@@H]1C[C@@H](O)CN1C(=O)[C@@H](NC(=N)N)C(C)C)C(=O)N[C@H]1CCC(=O)NCC[C@@H](C(=O)N[C@@H](Cc2ccc(O)cc2)C(=O)O)NC(=O)[C@H](CCN)NC(=O)[C@H](CCN)NC(=O)[C@H](CCCCN)NC(=O)[C@@H](CCN)NC(=O)[C@H]([C@@H](C)O)NC(=O)[C@H](CCN)NC(=O)[C@H](CCCNC(=N)N)NC(=O)[C@H](CC(N)=O)NC(=O)[C@H](CO)NC(=O)[C@H](Cc2ccc(O)cc2)NC1=O [Example 87, Gua-Val-Hyp-Ile-Glu-Tyr-Ser-Asn-Arg-Dab-Thr-^DDab-Lys-Dab-Dab-Dab-Tyr] ({Val(Nα-amidino)}-[Hyp]IEYSNR[Dab]T[dDab]K[Dab][Dab][Dab]Y-OH; lactam 3-14) | <1% | 0.0625 µg/mL | 0.125 µg/mL | 0.125 µg/mL
